The values that follow come from ChEMBL document CHEMBL3217629, “Discovery of novel morpholinoquinoxalines as PI3K inhibitors by pharmacophore-based screening” (Medchemcomm, 2012).

Each structure is given as a SMILES string.

One test relates to A549. As to the kind of experiment: Cytotoxicity against human A549 cells after 72 hrs by MTT assay. Particulars: A549, 72 h. It is filed as functional, cell-based.
The test system of the next test is HL-60. In words: Cytotoxicity against human HL60 cells after 72 hrs by MTT assay. Particulars: HL-60, 72 h. It counts as functional, cell-based.
The subject of another test is PC-3. As to the kind of experiment: cells. Particulars: Homo sapiens, PC-3, 72 h.
The target in test [1] is Phosphatidylinositol 4,5-bisphosphate 3-kinase catalytic subunit alpha isoform (Homo sapiens, UniProt P42336). In words: Inhibition of recombinant human PI3Kalpha using diC8-PI(4,5)P2 as substrate after 3 hrs by fluorescence polarization method.
In the next test the test system is HCT-116. As to the kind of experiment: cells. Particulars: Homo sapiens, HCT-116, 72 h.

Sequence of Phosphatidylinositol 4,5-bisphosphate 3-kinase catalytic subunit alpha isoform (P42336 whole entry, canonical isoform): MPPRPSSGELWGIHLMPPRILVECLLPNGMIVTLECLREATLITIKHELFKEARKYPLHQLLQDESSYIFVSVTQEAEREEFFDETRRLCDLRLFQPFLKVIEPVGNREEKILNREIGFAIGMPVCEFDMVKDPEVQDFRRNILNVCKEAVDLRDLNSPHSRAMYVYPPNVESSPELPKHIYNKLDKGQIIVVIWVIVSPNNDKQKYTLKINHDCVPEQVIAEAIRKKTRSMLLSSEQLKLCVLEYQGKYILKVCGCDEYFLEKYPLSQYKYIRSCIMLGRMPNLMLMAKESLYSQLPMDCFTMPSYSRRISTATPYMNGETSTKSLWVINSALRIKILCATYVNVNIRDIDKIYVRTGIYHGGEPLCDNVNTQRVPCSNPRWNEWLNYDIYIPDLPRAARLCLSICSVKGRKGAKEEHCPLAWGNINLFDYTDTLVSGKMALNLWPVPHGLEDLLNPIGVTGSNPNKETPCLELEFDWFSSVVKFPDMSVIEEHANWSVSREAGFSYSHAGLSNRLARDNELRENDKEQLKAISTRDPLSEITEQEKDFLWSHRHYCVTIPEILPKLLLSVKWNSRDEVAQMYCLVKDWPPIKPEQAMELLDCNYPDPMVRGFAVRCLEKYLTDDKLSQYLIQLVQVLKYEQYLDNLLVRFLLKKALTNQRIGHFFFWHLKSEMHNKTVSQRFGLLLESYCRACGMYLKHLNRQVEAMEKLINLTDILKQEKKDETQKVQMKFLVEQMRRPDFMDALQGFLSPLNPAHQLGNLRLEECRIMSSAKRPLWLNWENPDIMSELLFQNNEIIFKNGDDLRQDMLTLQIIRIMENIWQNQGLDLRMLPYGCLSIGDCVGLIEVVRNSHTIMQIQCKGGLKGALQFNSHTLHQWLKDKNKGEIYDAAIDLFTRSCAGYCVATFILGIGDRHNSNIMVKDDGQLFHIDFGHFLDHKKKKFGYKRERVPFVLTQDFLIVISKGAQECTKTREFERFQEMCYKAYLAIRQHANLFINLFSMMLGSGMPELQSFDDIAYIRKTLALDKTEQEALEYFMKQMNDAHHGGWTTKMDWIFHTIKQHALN
Description for PC-3: Cytotoxicity against human PC3 cells after 72 hrs by MTT assay

Turning to `Cc1ccc(S(=O)(=O)c2nc3ccccc3nc2N2CCOCC2)cc1`, the IC50 with A549 is 3.3 µM; in the test on HL-60, 0.95 µM; with PC-3 it was 9.34 µM; in test [1], 1.58 µM; with HCT-116 it was 10.5 µM.
Take `COc1ccc(S(=O)(=O)c2nc3ccccc3nc2N2CCOCC2)cc1`: the IC50 is 19.4 µM with A549; 4.8 µM with HL-60; 0.88 µM in the test with PC-3; 1.4 µM in test [1]; greater than 50 µM with HCT-116.
Taken in the same sequence, the figures for `O=S(=O)(c1ccc(Br)cc1)c1nc2ccccc2nc1N1CCOCC1` were 6.65 µM, 3.41 µM, 25.4 µM, 2.89 µM and 35 µM.
As for `O=S(=O)(c1ccc(F)cc1)c1nc2ccccc2nc1N1CCOCC1`, the IC50 was found to be 5.64 µM with A549; 1.74 µM in the test on HL-60; 3.4 µM with PC-3; 2.49 µM in test [1]; 3.61 µM in the test with HCT-116.
For the molecule `c1ccc(Sc2nc3ccccc3nc2N2CCOCC2)cc1`, the IC50 in the test with A549 is 7.25 µM; in the test on HL-60, 5.18 µM; with PC-3, greater than 50 µM; in test [1], greater than 50 µM; in the test with HCT-116 it was 45.6 µM.
With `O=S(=O)(c1ccccc1)c1nc2ccccc2nc1N1CCCCC1`, the IC50 in the test with A549 was greater than 50 µM; in the test with HL-60, 27.1 µM; with PC-3, 26.9 µM; in test [1] it was 21.6 µM; in the test with HCT-116 it was 6.48 µM.
